Data reported in patent US7824912B2, “Methods for ex vivo propagation of adult hepatic stem cells” (Massachusetts Institute of Technology, priority 2005, dated 2010).

Assays:
[1] = test system: CYP3A4
Procedure: FIG. 14A, cells were grown in a collagen-Matrigel™ sandwich with serum supplemented medium. FIG. 14B, cells were grown under routine culture conditions, but with serum-free medium. Data are the mean of replicate assays (n=2). Error bars indicate the standard deviation of replicate assays.
We undertook an evaluation of CYP3A4 activity in phHASC strains using a commercially available luciferase-based luminescent assay. The p450-GLO™ CYP3A4 luminescent assay was supplied by Promega Corp. (Madison, Wis.). The assay is based on a caged luciferin substrate that is specifically uncaged by the enzymatic action of CYP3A4. Once uncaged, luciferin is available for luciferase action and light production.
We evaluated the effect of rifampicin under two different conditions with two different concentrations of the solvent carrier DMSO, 0.03% and 5%. Parental phHASCs were evaluated after growth in a collagen-Matrigel™ sandwich, as recommended by the supplier of the p450-GLO™ CYP3A4 luminescent assay (FIG. 14A) or under standard culture conditions with serum-free medium (FIG. 14B).

[2] = test system: somatic liver stem cells; experiment: Derivation of phHASC strains from liver cells by the modified SACK method; format: cell-based, human
Procedure: Cells: Human liver cells are tested for blood borne agents, the non-parenchymal (NPC) fraction is place on ice for up to 24 hours and then centrifuged at 800×g for 5 minutes at 4° C. The resulting cell pellet is re-suspended in 50 ml-100 ml cold Dulbecco's Modified Eagle medium (DMEM-high glucose) supplemented with 1% dialyzed fetal bovine serum (DFBS). Based on the count of trypan blue-excluding viable cells, 5×10^6 viable cells are plated in 10-cm diameter cell culture dishes. Initiation Culture Medium: […] Maintenance Culture Medium: DMEM-high glucose supplemented with 10% DFBS, 20 ng/ml recombinant human epidermal growth factor, 0.5 ng/ml transforming growth factor β1, and the respective purine compound at the concentration used in the Initiation Culture Medium. Although initial efforts to derive cell strains by limiting dilution cloning were unsuccessful, we modified the approach by initially culturing primary liver cell preparations at confluent cell densities under conditions of reduced serum and supplementation with SACK agents, TGF-β and EGF (See Table 1). SACK-derived rat adult stem cell strains resist hepatocytic differentiation by TGF-β and EGF. Whereas their non-stem cell progeny undergo cell cycle withdrawal and hepatic differentiation in response to serum reduction and exposure to TGF-β and EGF, in the presence of Xs, the stem cells continue to cycle actively. The first four livers were invested in establishing a modified SACK procedure. Unlike the original procedure developed for derivation of rat hepatic adult stem cells (Lee et al., 2003), the new method is not based on limiting dilution cloning. Instead, the liver cells are initially cultured at confluent cell densities in low serum medium (1% dialyzed fetal bovine serum [dFBS]) supplemented with the growth factors TGFβ and EGF. In addition, higher concentrations of SACK agents are used, e.g. 1.5 mM Xs. These conditions suppress the growth of differentiating liver cells (including troublesome fibroblasts and stellate cells), while promoting the expansion of […]. After initial outgrowth of […] strains, serum supplementation is increased to 10% dFBS for routine maintenance. Table 1 summarizes results obtained when the newly adapted SACK procedure was applied to cell specimens from two livers from […] donors. All strains were cryo-preserved at early passages using a freezing procedure that minimizes the time that cells spend super-cooled before ice formation (Karlsson et al., 1996). This precaution provides a high level of viability (70%-80%) upon thawing the cells.

[3] = test system: phHASC subclone C2; experiment: Colcemid arrest assay (CAA) of non-cycling cell fraction; format: cell-based, human; settings: subclone C2, +Xs compared to -Xs
Procedure: FIGS. 12A and 12B show CAA analyses of a Xs-derived sub-clone (Parental strain see FIG. 10). […] The new assay is called the colcemid arrest assay (CAA). We used our engineered cell lines with experimentally controlled asymmetric self-renewal to develop it (Rambhatla et al., 2001; FIG. 9). Cell cultures are treated with the microtubule antagonist colcemid for a complete generation period. Conventional methods for propidium iodine staining and standard flow cytometry are used to quantify the DNA content of cells after colcemid treatment. In the presence of colcemid, cycling cells arrest in mitosis of the cell cycle with 4N DNA content. After one generation period, all previously cycling cells contain this amount of DNA. Therefore, for cell cultures with only symmetrically cycling cells, essentially the entire culture arrests in mitosis with 4N DNA (compare FIGS. 9A and 9C). In contrast, the DNA content of non-cycling cells is unchanged. […] Thus, CAA can identify and quantify the cycling stem cell fraction and the arrested differentiated progeny fraction of an asymmetrically self-renewing adult stem cell population (compare FIGS. 9B and 9D). […] In pilot studies with engineered cell lines, the CAA-determined rates were in good agreement with expectations based on previous lineage-specific cell kinetics assays. […]

| effect on basal level of CYP3A4 activity [1] | increase in CYP3A4 activity ([1]; human, 48 h, 5 %) [fold] | Structure (SMILES) | Number of Strains ([2]; liver, 2 trials per SACK agent) | Number of Strains ([2]; liver, 3 trials per SACK agent) | reliability and effectiveness for developing strains ([2]; compared among Hx, Xn and Xs) | Sub-clones ([2]; liver) | non-cycling fraction [3] |
| --- | --- | --- | --- | --- | --- | --- | --- |
| did not affect | 6.5 | C[S+](C)[O-] [DMSO, dimethylsulfoxide] | – | – | – | – | – |
| – | – | O=c1[nH]cnc2nc[nH]c12 [Hx, hypoxanthine] | 2 | 3 | – | – | – |
| – | – | O=c1[nH]c(=O)c2[nH]cnc2[nH]1 [Xn, xanthine] | 1 | 3 | – | – | – |
| – | – | O=c1[nH]c(=O)c2ncn([C@@H]3O[C@H](CO)[C@@H](O)[C@H]3O)c2[nH]1 [Xs, xanthosine] | 2 | 1 | most reliable and effective | 9 | reduced |
